{
  "source": "patent US7884115B2",
  "about": "“Methods and compositions for the treatment of pain and other neurological conditions” (Allergan, Inc., priority 2004, dated 2011)",
  "key": {"[1]": {"tested_on": "allodynia induced by N-methyl-D-aspartate (NMDA)", "assay": "Mouse NMDA model of allodynia", "type": "in vivo", "conditions": "3 mg/kg, 15 min before 200 ng NMDA IT, FIG. 2", "procedure": "In variants of this model, allodynia can be induced using 100 ng N-methyl-D-aspartate (NMDA) in DMSO intrathecally, or IP phenylephrine (PE) 100 ng/kg formulated in dH2O. In either model, the compounds are formulated in d-H2O and given in a volume of 1 ml/kg body weight for intraperitoneal (IP) dosing. Six mice per group are rendered allodynic by injection of one of the following agents: 300 ng/kg sulprostone in DMSO IP, 100 ng/kg phenylephrine (PE) in dH2O IP, or 100 ng NMDA in DMSO intrathecally (IT). Fifteen minutes before administration of the allodynia-inducing agents, the experimental mice are given 1 mg/kg NB-DNJ. Thirty (30) minutes following administration of NB-DNJ, the allodynic response is monitored as described by brushing the flank of each mouse with a paint brush. Six mice per group are given one of the following: given 100 μg/kg NB-DNJ, 300 μg/kg NB-DNJ, 1 mg/kg NB-DNJ, or 3 mg/kg 1-deoxynojirimycin. After 15 minutes the mice are rendered allodynic by injection of 200 ng NMDA in DMSO IT. Starting thirty (30) minutes following administration of NB-DNJ, the allodynic response of each mouse is monitored by brushing the flank of the mouse with a paint brush. Five to six mice per group are rendered allodynic by injection of one of the following: 300 ng/kg sulprostone IP, 100 ng/kg phenylephrine (PE) IP, or 100 ng NMDA intrathecally (IT). Fifteen minutes prior to the induction of allodynia, the mice are given D-glucaro-delta-lactam IP at […], or 1 mg/kg. PE or NMDA-treated mice are given 1 mg/kg D-glucaro-delta-lactam IP."}, "[2]": {"tested_on": "primary rat brain cortical neurons treated with NMDA plus D-serine", "assay": "NMDA/serine-induced excitotoxicity in primary cortical neurons (LDH release)", "type": "cell-based", "conditions": "NMDA/serine-treated cells, 3 h or 16 h preincubation; FIGS. 10A and 10B", "procedure": "(§1) Primary rat brain cortical neurons were cultured as follows. In brief, rat cerebral cortices were removed from brains of the 16 day-old-fetal rats. The neocortices were gently triturated and plated on 24 well plates (300,000 viable cells/cm2) in plating Modified Eagle's Medium (MEM) supplemented with 10% horse serum, 10% fetal calf serum and 2 mM L-glutamine. Cultures were maintained at 37 C in a humidified 5% CO2 atmosphere.\nAfter 4 days' growth (DIV 4), half of the medium was replaced by a medium identical to the plating medium but lacking calf serum. At DIV4, 10 μM 5-fluoro-2-deoxyuridine was included to each well to halt overgrowth of glia. Mixed cultures of neurons and glia were then fed at DIV7 and DIV11 with MEM plus 5% horse serum previously conditioned by growth with cortical astrocytes for 24 h. […]\nUnder the experimental conditions used, i.e. after 6 hours addition of excitotoxic agent, 40% toxicity is generally observed and measured by determination of the amount of lactate dehydrogenase (LDH) released into the medium following membrane degradation. […] Overall cell injury was assessed microscopically under phase-contrast optics or by measuring amount of LDH released into the bathing medium 24 hr after neurotoxic insults (see, e.g., Koh and Choi, J. NEUROSCI. METHODS 20: 83-90, 1987), hereby incorporated by reference herein. […]"}, "[3]": {"tested_on": "primary rat brain cortical neurons treated with kainate", "assay": "Kainate-induced excitotoxicity in primary cortical neurons (LDH release)", "type": "cell-based", "conditions": "cortical cell cultures; FIGS. 9A, 9B and 9C", "procedure": "as §1\nAfter 4 days' growth (DIV 4), half of the medium was replaced by a medium identical to the plating medium but lacking calf serum. At DIV4, 10 μM 5-fluoro-2-deoxyuridine was included to each well to halt overgrowth of glia. Mixed cultures of neurons and glia were then fed at DIV7 and DIV11 with MEM plus 5% horse serum previously conditioned by growth with cortical astrocytes for 24 h.\nExcitotoxicity was induced in these cells by addition of 50 μM kainate or 20 μM N-methyl-D-aspartate plus 10 μM D-serine to each well.\nUnder the experimental conditions used, i.e. after 6 hours addition of excitotoxic agent, 40% toxicity is generally observed and measured by determination of the amount of lactate dehydrogenase (LDH) released into the medium following membrane degradation. Such assay methods are well-known; a kit for conducting a homogeneous form of the LDH assay format is sold by Promega under the name CytoTox ONE® Homogenous Membrane Integrity Assay. Overall cell injury was assessed microscopically under phase-contrast optics or by measuring amount of LDH released into the bathing medium 24 hr after neurotoxic insults (see, e.g., Koh and Choi, J. NEUROSCI. METHODS 20: 83-90, 1987), hereby incorporated by reference herein.\n[…] The final results are normalized optical density (OD) values (treated cells/untreated control cells), where a value of 1 represents 100% neuronal survival and a value of 0.6 represents 60% survival."}, "[4]": {"tested_on": "allodynia induced by sulprostone", "assay": "Mouse sulprostone model of allodynia", "type": "in vivo", "conditions": "up to 1 mg/kg, 15 min before sulprostone 300 ng/kg IP, FIG. 3", "procedure": "In this alternative model of chronic pain, allodynia can be induced in mice through intraperitoneal treatment of the animals with 300 ng/kg sulprostone (prostaglandin E2 receptor agonist) in 50% DMSO and in a volume of 5 μl. In this model, the pain response to stroking the flank with a paint brush is scored 8 times over a 35 minute period starting 15 minutes following spinal administration of sulprostone. Minami et al., 57 Pain 217-223 (1994), hereby incorporated by reference herein. Sulprostone treatment alone elicits a score of 12-13 on a 16-point scale.\nIn either model, the compounds are formulated in d-H2O and given in a volume of 1 ml/kg body weight for intraperitoneal (IP) dosing.\nSix mice per group are rendered allodynic by injection of one of the following agents: 300 ng/kg sulprostone in DMSO IP, 100 ng/kg phenylephrine (PE) in dH2O IP, or 100 ng NMDA in DMSO intrathecally (IT). Fifteen minutes before administration of the allodynia-inducing agents, the experimental mice are given 1 mg/kg NB-DNJ. Thirty (30) minutes following administration of NB-DNJ, the allodynic response is monitored as described by brushing the flank of each mouse with a paint brush.\nFive to six mice per group are rendered allodynic by injection of 300 ng/kg sulprostone IP. Fifteen minutes before inducement of an allodynic response, experimental mice are given one of the following: 1 mg/kg, 300 μg/kg, and 100 μg/kg NB-DNJ; 1 mg/kg N-butyldeoxymannojirimycin; 1 mg/kg N-5-carboxy-1-deoxynojirimycin; 1 mg/kg N-dodecyldeoxynojirimycin; 1 mg/kg N-ethyl-1-deoxynojirimycin; 1 mg/kg, 300 μg/kg, and 30 μg/kg D-glucaro-delta-lactam; 1 mg/kg 4-O-a-D-glucopyranosylmoranoline; 1 mg/kg nojirimycin bisulfite; 1 mg/kg nojirimycin-1-sulfonic acid; 1 mg/kg N-(n-nonyl)deoxynojirimycin; 1 mg/kg N(7-oxadecyl)deoxynojirimycin; and 1 mg/kg N-(7-oxa-9,9,9-trifluorononyl)deoxynojirimycin. The DMSO vehicle and sulprostone alone are used as controls.\nStarting thirty (30) minutes following administration of NB-DNJ, the allodynic response of each mouse was monitored by brushing the flank of the mouse with a paint brush.\nFive to six mice per group are rendered allodynic by injection of one of the following: 300 ng/kg sulprostone IP, 100 ng/kg phenylephrine (PE) IP, or 100 ng NMDA intrathecally (IT). Fifteen minutes prior to the induction of allodynia, the mice are given D-glucaro-delta-lactam IP at […], or 1 mg/kg. PE or NMDA-treated mice are given 1 mg/kg D-glucaro-delta-lactam IP."}, "chronic pain": {"tested_on": "chronic pain", "assay": "Mouse and rat models of chronic pain (summary statement)", "type": "in vivo"}},
  "data": [
    {"smiles": "OC[C@H]1NC[C@H](O)[C@@H](O)[C@@H]1O", "note": "[DNJ, 1-deoxynojirimycin]", "values": [
      {"measurement": "analgesic activity", "setting": "[1]", "value": "not analgesic"},
      {"measurement": "neuroprotective effect", "setting": "[2]", "value": "no neuroprotective effect"},
      {"measurement": "protection against kainate induced toxicity", "setting": "[3]", "value": "about 50%"}
    ]},
    {"smiles": "CCN1C[C@H](O)[C@@H](O)[C@H](O)[C@H]1CO", "note": "[N-ethyldeoxynojirimycin, N-ethyl-1-deoxynojirimycin]", "values": [
      {"measurement": "attenuation of the allodynic response (analgesic activity)", "setting": "[4]", "value": "attenuate the allodynic response"}
    ]},
    {"smiles": "CCCCN1C[C@H](O)[C@@H](O)[C@@H](O)[C@H]1CO", "note": "[NB-DGJ, N-butyldeoxygalactonojirimycin]", "values": [
      {"measurement": "activity in models of chronic pain", "setting": "chronic pain", "value": "not to be active"}
    ]}
  ]
}
